≈ marks a conversion by molar mass, not a printed value. Where “and” joins values, the source holds several entries; their conditions need not be identical. Equal entries are not always repeated. Where two headings read alike, the source gives them in different places.
Experiments:
Staph. aureus = assay: ED50 against Staph. aureus murine septicaemias (Table 2); type: in vivo
S aureus = assay: MIC, microbiological activity (Tables 2, 3); type: cell-based
S epidermidis = assay: MIC, microbiological activity (Table 3); type: cell-based; details: L 147 S epidermidis
S pyogenes = assay: MIC, microbiological activity (Table 3); type: cell-based; details: L 49 S pyogenes C203
S pneumoniae = assay: MIC, microbiological activity (Table 3); type: cell-based; details: L 44 S pneumoniae UC41
S haemolyticus = assay: MIC, microbiological activity (Table 3); type: cell-based; details: L 602 S haemolyticus clin. isolate
E faecalis = assay: MIC, microbiological activity (Table 3); type: cell-based
E. faecium Van-A = assay: MIC, microbiological activity (Table 3); type: cell-based; details: L 1666 E. faecium Van-A
B subtilis = assay: MIC, microbiological activity (Table 3); type: cell-based; details: L 102 B subtilis ATCC
E coli = assay: MIC, microbiological activity (Table 3); type: cell-based; details: G 16440 E coli iperperm
P vulgaris = assay: MIC, microbiological activity (Table 3); type: cell-based; details: L 79 P vulgaris
P aeruginosas = assay: MIC, microbiological activity (Table 3); type: cell-based; details: L 4 P aeruginosas ATCC10145
C albicans = assay: MIC, microbiological activity (Table 3); type: cell-based; details: L 145 C albicans SKF2270
[1] = test system: catheter-related blood stream infection (CR-BSI) due to gram-positive bacterial pathogens; assay: CR-BSI trial: efficacy (overall, clinical, microbiological response); type: in vivo, human; details: microbiological ITT population at TOC; dalbavancin 1000 mg Day 1 + 500 mg Day 8 IV; vancomycin 1000 mg IV every 12 hours
Procedure: Patients with CR-BSI due to suspected or known Gram-positive pathogen(s) who met the inclusion/exclusion criteria were randomized to one of two treatment arms in this open-label, comparative, multi-center study. Dalbavancin was administered once weekly in weekly dalbavancin and comparator (vancomycin) was administered daily in vancomycin. Catheter removal was required for patients with Staphylococcus aureus infection; catheter management was left to the Investigator's discretion for patients with coagulase-negative staphylococci (CoNS) infection. Efficacy was clinically based on the improvement or resolution of clinical signs and symptoms of CR-BSI such that no additional antibacterials were warranted, and microbiologically on the eradication or presence of the baseline or other pathogens.
The treatment lasted for 14 days for patients with S. aureus infection, and 7 to 14 days for all other pathogens. […] Vancomycin was administered intravenously with a 1000 mg dose every 12 hours (or dose-adjusted based on drug levels).
Efficacy was evaluated based on clinical and microbiological responses.

gram positive bacteria [2] = assay: MIC by broth microdilution (NCCLS), with or without 30% bovine serum (Table 42); type: cell-based
Procedure: (§1) Before dissolution, each sample was analyzed by HPLC and quantified.
(§2) The microorganisms used were reference strains obtained from the American Type Culture Collection (ATCC) (Rockville, Md.), SmithKline and French Laboratories (SKF), and the Upjohn Company (UC) (Kalamazoo, Mich.).
(§3) MICs were determined by the broth microdilution methodology following the standard NCCLS procedure (NCCLS Document M7-A6, Vol. 23, No. 2, “Methods for dilution antimicrobial susceptibility tests for bacteria that grow aerobically.” Approved Guideline. January 2003, which can be herein incorporated by reference in its entirety), with or without 30% adult bovine serum (BS) (PAA Laboratories GMBH, Haidmannweg Pasching Austria), using bacterial innocula at approximately 5×10^5 CFU/ml. The media employed included cation-adjusted Müller Hinton broth (Difco Laboratories, Detroit, Mich.) that was used that was adjusted with CaCl2 and MgCl2 to a final concentration of 20 mg/L and 10 mg/L, respectively. Tests were read following 20-24 hours of incubation at 35° C.

gram-negative bacteria = assay: MIC by broth microdilution (NCCLS) (Table 42); type: cell-based
Procedure: as §1, §2, §3

[3] = test system: panel of gram-positive bacteria; assay: MIC by broth microdilution (NCCLS) of IsoB0 and reference compounds (Table 44); type: cell-based
Procedure: Müller Hinton broth (Difco Laboratories, Detroit, Mich., USA) adjusted with CaCl2 and MgCl2 to a final concentrations of 20 mg/L and 10 mg/L respectively.
The microorganisms used are reference standard strains from the American Type Culture Collection (ATCC, Rockville, USA), Smith Kline and French Laboratories (SKF) and the Upjohn Company (UC, Kalamazoo, Mich., USA).
(§4) MICs were determined by the broth microdilution methodology following the standard NCCLS procedure, with or without 30% bovine serum, using bacterial inocula of approximately 5×10^5 CFU/mL. Tests were read after 20-24 h incubation at 35° C.

[4] = test system: Candida albicans SKF 2270; assay: MIC by broth microdilution (NCCLS) (Tables 42, 44); type: cell-based
[5] = test system: Escherichia coli, Proteus vulgaris, Pseudomonas aeruginosas; assay: MIC by broth microdilution (NCCLS) of IsoB0 and reference compounds (Table 44), non-gram-positive bacterial strains; type: cell-based
Procedure: as §4

gram positive bacteria [6] = details: NCCLS M100 S-12, cited from earlier work
CR-BSI trial: safety = details: in vivo
Procedure: Safety was evaluated by the collection and analysis of data on adverse events (AEs), clinical laboratory tests, physical examinations, vital signs, and ECGs.

[7] = test system: N,N′-diacetyl-Lys-D-Ala-D-Ala; assay: Isothermal titration calorimetry of tri-peptide binding, with and without HSA (Table 39); details: for Kd: read-out: Kdiss
Procedure: Antibiotics and peptides were dissolved in aqueous buffer (20 mM Na phosphate, 150 mM NaCl, pH 7.4) containing HSA, with gentle stirring immediately before each experiment. Peptide concentrations were determined by weight. […] HSA concentrations were determined by UV absorbance (HSA, ε280=37,700; A280^1%=5.44). Spectra were recorded at room temperature in 1 cm pathlength quartz cuvettes using Shimadzu UV-160A or UV-1601 spectrophotometers, with samples diluted quantitatively with buffer if necessary to give absorbance in the 0.1-1 A range.
Isothermal titration calorimetry was performed using a Microcal VP-ITC instrument at 25° C. and 37° C. using standard operating procedures. […] Samples were degassed gently prior to loading to prevent bubble formation in the calorimeter cell. […] Control experiments involved injection of ligand into buffer under identical conditions to determine heats of peptide dilution, and these values were used for correction of raw binding data prior to analysis.

[8] = Enterococcus faecalis ATCC 7080
[9] = Enterococcus faecalis, ATCC29212
[10] = Staphylococcus aureus, ATCC19636
[11] = Staphylococcus aureus, ATCC29213
[12] = Staphylococcus epidermidis, ATCC12228

With CN[C@H]1C(=O)N[C@@H]2Cc3ccc(cc3)Oc3cc4cc(c3O)Oc3ccc(cc3Cl)[C@@H](O)[C@@H]3NC(=O)[C@H](NC(=O)[C@@H]4NC(=O)[C@@H](NC2=O)c2cc(cc(O)c2Cl)Oc2cc1ccc2O)c1ccc(O)c(c1)-c1c(O[C@H]2O[C@H](CO)[C@@H](O)[C@H](O)[C@@H]2O)cc(O)cc1[C@@H](C(=O)NCCCN(C)C)NC3=O [MAG] the ED50 (Staph. aureus; MRSA Staph. aureus 3817, treatment once within 10 min from infection by sc route) was 1.6 mg/kg, the ED50 (Staph. aureus; MSSA Staph. aureus Smith 819, treatment once within 10 min from infection by sc route) was 0.3 mg/kg and the MIC (S aureus; 3797 S aureus clin. Isolate GISA) was 0.5-0.5 μg/ml. For the same compound, the MIC (S aureus; 3817 S aureus clin. Isolate) was 0.5 µg/mL (≈ 0.343 µM), the MIC (S aureus; L 613 S aureus clin. isolate) was 1 µg/mL and 0.5 µg/mL and the MIC (S aureus; L 819 S aureus Smith) was 0.5 µg/mL and 0.25 µg/mL. For the same compound, the MIC (S aureus; L 819 S aureus Smith 50% serum) was 1-1-1 μg/ml, the MIC (S aureus; MRSA Staph. aureus 3817) was 0.5 µg/mL (≈ 0.343 µM) and the MIC (S aureus; MSSA Staph. aureus Smith 819) was 0.5 µg/mL (≈ 0.343 µM). The MIC (S epidermidis) was 0.25 µg/mL and 0.13 µg/mL, the MIC (S pyogenes) was 0.5 µg/mL and 0.25 µg/mL and the MIC (S pneumoniae) was 1 µg/mL and 0.5 µg/mL. For the same compound, the MIC (S haemolyticus) was >32-32 μg/ml, the MIC (E faecalis; L 149 E faecalis) was 0.25 µg/mL and 0.5 µg/mL and the MIC (E faecalis; L 562 E faecalis clin. isolate) was 32->32->32 μg/ml. The MIC (E. faecium Van-A) was >32->32->32 μg/ml, the MIC (B subtilis) was 0.13-0.13 μg/ml and the MIC (E coli) was 8 µg/mL and 16 µg/mL. For the same compound, the MIC (P vulgaris) was >32->32->32 μg/ml, the MIC (P aeruginosas) was >32->32->32 μg/ml and the MIC (C albicans) was >32->32->32 μg/ml.
With CN[C@H](CC(C)C)C(=O)N[C@H]1C(=O)N[C@@H](CC(N)=O)C(=O)N[C@H]2C(=O)N[C@H]3C(=O)N[C@H](C(=O)N[C@H](C(=O)O)c4cc(O)cc(O)c4-c4cc3ccc4O)[C@H](O)c3ccc(c(Cl)c3)Oc3cc2cc(c3O[C@@H]2O[C@H](CO)[C@@H](O)[C@H](O)[C@H]2O[C@H]2C[C@](C)(N)[C@H](O)[C@H](C)O2)Oc2ccc(cc2Cl)[C@H]1O [Vancomycin] the ED50 (Staph. aureus; Staphylococcus aureus, MRSA, sc, 10 min) was 1 mg/kg, the ED50 (Staph. aureus; Staphylococcus aureus, MSSA, sc, 10 min) was 1.7 mg/kg and the MIC (S aureus; Staphylococcus aureus, MRSA Staph. aureus 3817, read-out: MIC) was 0.5 µg/mL (≈ 0.345 µM). The MIC (S aureus; Staphylococcus aureus, MSSA Staph. aureus Smith 819, read-out: MIC) was 0.5 µg/mL (≈ 0.345 µM), the “overall response success rate” value [1] was 50.0% and the MIC (gram positive bacteria [2]) was 1 µg/mL (≈ 0.69 µM). For the same compound, the MIC (gram positive bacteria [2]; Bacillus subtilis ATCC 6633) was at most 0.125 µg/mL, the MIC (gram positive bacteria [2]; [8]) was 1 µg/mL (≈ 0.69 µM) and the MIC (gram positive bacteria [2]; [9]) was 2 µg/mL (≈ 1.38 µM). For the same compound, the MIC (gram positive bacteria [2]; [10]) was 1 µg/mL (≈ 0.69 µM), the MIC (gram positive bacteria [2]; [11]) was 2 µg/mL (≈ 1.38 µM) and the MIC (gram positive bacteria [2]; [12]) was 2 µg/mL (≈ 1.38 µM). The MIC (gram positive bacteria [2]; Streptococcus pneumoniae, UC41) was 0.5 µg/mL (≈ 0.345 µM), the MIC (gram-negative bacteria) was over 128 µg/mL and the MIC (gram-negative bacteria; Escherichia coli) was over 128 µg/mL. It also gave an MIC (gram-negative bacteria; Escherichia coli, ATCC25922) of over 128 µg/mL, an MIC (gram-negative bacteria; Proteus vulgaris ATCC 881) of over 128 µg/mL and an MIC ([3]; Bacillus subtilis ATCC 6633) of at most 0.125 µg/mL. It also gave an MIC [3, 8] of 1 µg/mL (≈ 0.69 µM), an MIC [3, 9] of 2 µg/mL (≈ 1.38 µM) and an MIC [3, 10] of 1 µg/mL (≈ 0.69 µM). It also gave an MIC [3, 11] of 2 µg/mL (≈ 1.38 µM), an MIC [3, 12] of 2 µg/mL (≈ 1.38 µM) and an MIC ([3]; Streptococcus pneumoniae, UC41) of 0.5 µg/mL (≈ 0.345 µM). For the same compound, the MIC ([3]; Streptococcus pyogenes) was 1 µg/mL (≈ 0.69 µM), the MIC ([4]; Candida albicans SKF2270 (Table 44)) was over 128 µg/mL and the MIC ([4]; Candida albicans, SKF2270) was over 128 µg/mL. The MIC [5] was over 128 µg/mL, the MIC ([5]; Escherichia coli) was over 128 µg/mL and the MIC ([5]; Escherichia coli, ATCC25922) was over 128 µg/mL. The MIC ([5]; Proteus vulgaris ATCC 881) was over 128 µg/mL, the “Quality control range of MICs for reference strains” value (gram positive bacteria [6]; E. faecalis ATCC29212 ref. strain) was “^2VA 1-4 mg/L” and the “Quality control range of MICs for reference strains” value (gram positive bacteria [6]; S. aureus ATCC 29213 ref. strain) was “^1VA 0.5-2 mg/L”. The “patients with AEs that led to discontinuation of study drug” value (CR-BSI trial: safety; human, intravenous) was 8.8%, the “SAE considered to be related to study drug” value (CR-BSI trial: safety) was “one SAE” and the Kass ([7]; T 10 ° C., [HSA] 0 μM) was 690000 M⁻¹. The Kass ([7]; T 25 ° C., [HSA] 0 μM) was 340000 M⁻¹ and 360000 M⁻¹, the Kass ([7]; T 25 ° C., with HSA 513 μM) was 290000 M⁻¹ and the “binding to dipeptide (D-Ala-D-Ala) or to Lys-D-Ala-D-Lactate” value ([7]; absence of serum proteins) was “no evidence of binding”. The Kd ([7]; T 10 ° C., [HSA] 0 μM) was 1.45 µM, the Kd ([7]; T 25 ° C., [HSA] 0 μM) was 2.94 µM and 2.78 µM and the Kd ([7]; T 25 ° C., with HSA 513 μM) was 3.45 µM.
